The text below walks through data of a melting point compilation (Tetko et al.; mined from patent text by program, amines drawn as free bases though some values may be those of a salt).

In general, melting point refers to the temperature of the solid-liquid transition.

A value given as a limit tells only on which side of the number the result lay.

In the case of `O=[N+]([O-])c1c(Cl)ccc(S(=O)(=O)Oc2ccccc2)c1Cl`, the melting point was determined as 91 °C.
The value for `CC(C)(C)OC(=O)N=C(N)N(Cc1ccc(OCCC2Oc3cc([N+](=O)[O-])ccc3N(Cc3cccc(Cl)c3)C2=O)cc1)C(=O)OC(C)(C)C` (stereo not given) was 67.5 °C.
The value for `Cn1c2c(c3c4c(N)nc(N)nc4ccc31)CCCC2` was 288 to 292 °C; that for `O=[N+]([O-])c1cc(C(c2ccc(NCc3ccccc3)c([N+](=O)[O-])c2)(C(F)(F)F)C(F)(F)F)ccc1NCc1ccccc1` was 168 to 172 °C; that for `Cc1ccc(-c2cc(C(=O)O)nn2Cc2ccc(Cl)c(Cl)c2)cc1` was 172 °C.
With `CNC(=O)c1cccc(C=NNc2ccc(C)cc2)c1O`, the melting point was 108 to 125 °C.
The value for `O=C(O)c1cc(Br)c2ccccn2c1=O` was over 250 °C; that for `CC(=O)OC(COc1ccc(C(=O)O)c(O)c1)c1ccc2c(c1)C(C)(C)CCC2(C)C` (stereo not given) was 160 to 161 °C.
The value for `COc1cccc(CNC(=O)c2nc3ccc(OCC(=O)c4ccccc4)cc3c(=O)[nH]2)c1` was 168 to 169 °C.
The value for `CC(C)(C)n1nc(-c2ccc(Cl)cc2)c2c(N)c(C#N)cnc21` was 213 to 215 °C; that for `OC1CSC(Oc2ccc(-c3ccncc3)nc2Cl)C(O)C1O` (stereo not given) was 186 °C.
On to `CC1(C)C(=O)Nc2ccc(C3=NNC(=O)C4CCC34)cc21` (stereo not given), for which the melting point lay in the range of 315 to 317 °C.
Turning to `CCCOc1ncc(S(C)(=O)=O)cc1-c1nc2c(CC)nn(C[C@@H]3CCCN3C)c2c(=O)[nH]1`, the melting point lay in the range of 182 to 183 °C.
The value for `CCOC1=C(C)C(=O)C(C)(C)CC1` was 104 to 106 °C.
In the case of `CN1CCN(c2ccnc3sc(C(N)=O)c(N)c23)CC1`, the melting point was in the range of 260 to 263 °C.
The value for `O=S(=O)(c1ccccc1)c1nccc2c1CCCC2` was 109 to 112 °C.
The value for `O=c1[nH]c2sccc2c(=O)n1CCN1CCC(=C(c2ccc(F)cc2)c2ccc(F)cc2)CC1` was 205 to 207 °C; that for `CCCCc1oc2ccccc2c1C(=O)Nc1ccc(-c2ccc(OCC#N)cc2)cc1` was 143 to 144 °C.
Turning to `COC(=O)c1ccc(OCCNC(=O)C2Cc3ccccc3N2S(=O)(=O)c2ccc(-c3cccc(C(F)(F)F)c3)cc2)cc1C(F)(F)F` (stereo not given), the melting point is 75 to 79 °C.
Take `COc1ccc(CCNC(=O)C23CC4CC(CC(C4)C2)C3)cc1OC`: the melting point is 132 to 133 °C.
Molecule `CCCCN(C(=O)c1cc(C(C)(C)C)c(O)c(C(C)(C)C)c1)C1CC(C)(C)N(OC(C)=O)C(C)(C)C1` displayed a melting point of 161 to 164 °C.
Molecule `COC(=O)c1nc(I)cc(N)c1Cl` yielded a melting point of 152 to 153 °C.
The value for `CNc1cc(-c2ccc(Cl)cc2)nn1C` was 112 °C; that for `CCCCN(CC)c1cc(C)nc(Oc2c(C)cc(Cl)cc2C)c1C` was 177 to 178 °C; that for `O=C(O)[C@H]1C[C@@H](O)CN1C(=O)Nc1ccc(Cl)cc1` was 132 to 134 °C.
The value for `Oc1ccnc2ncnn12` was 290 °C; that for `CCOC(=O)c1csc2cc(Oc3cc(Cl)nc(N)n3)ccc12` was 178 to 179 °C; that for `COc1cc(-c2cc(C(F)(F)F)nn2-c2ccc(S(C)(=O)=O)cc2)ccc1-c1cocn1` was 171 to 173 °C.
The value for `CSC(=O)C(=O)c1ccnc(NC=O)c1` was 165 to 167 °C.
`O=C(Nc1ccc(C(=O)O)cc1)NN1CC=CCC1` gave a melting point of over 240 °C.
For the molecule `CCCCCCc1cc2c(s1)NC(=O)CN=C2c1ccccc1C`, the melting point fell in the range of 162 to 163 °C.
The molecule `CCOC(=O)c1c(N2CCN(C(=O)c3ccco3)CC2)c2sccc2n(CC(=O)c2ccccc2)c1=O` yielded a melting point of 246 °C.
The value for `COc1cc(-c2ncnc(OC)c2Cl)c(F)cc1Cl` was 142 to 143 °C.
Turning to `O=C([C@H](O)CS(=O)(=O)c1ccc2cc(Cl)ccc2c1)N1CCN(N2CCCCC2=O)CC1`, the melting point was found to be 198 °C.
Turning to `CCOC(=O)C1=C(N=CN(C)C)NC(C)=C(C(=O)OC)C1c1ccccc1Cl` (stereo not given), the melting point came to 137 °C.
For `O=C(Nc1ccc(OCc2ccncc2)c2ccccc12)c1cc(F)cc(OC2CCCCC2)c1`, the melting point was 176 to 178 °C.
The value for `O=[N+]([O-])c1cc(Cl)ncc1CCc1ccccc1` was 76 to 78 °C; that for `COc1cc2c(cc1Nc1ncc(Cl)c(N[C@@H]3CCCC[C@H]3NS(C)(=O)=O)n1)CCN(C(=O)C(F)(F)F)CC2` was 98 to 107 °C.
Consider `Cc1c(O)ccc(-c2ccc(C#N)cc2)c1C`, for which the melting point fell in the range of 174 to 176 °C.
For `CCCOC(=O)Cc1ccc2c(c1)C(=O)c1ccccc1CO2`, the melting point was in the range of 30 to 32 °C.
The value for `COc1ccccc1-c1cccc(-n2cnc(-c3nc(C)no3)c2)c1` was 97.1 to 101 °C.
Consider `O=C(O)CCC12CCC(=O)N1C(=O)CC2`, for which the melting point lay within 179 to 181 °C.
The molecule `Cc1ccn(C)c(=S)n1` gave a melting point of 138 to 140 °C.
On to `CCOC(=O)N1CCC(O)(CN)CC1`, for which the melting point turned out to be 82 °C.
The molecule `CCc1cccc(CC)c1NC(=O)C(C)Br` (stereo not given) came in with a melting point of 197 to 199 °C.
For the molecule `CCOC(=O)c1cnoc1-c1ccc([N+](=O)[O-])cc1`, the melting point fell in the range of 73 to 76 °C.
The value for `CC1(C)OC(=O)Nc2ccc(-c3cc(F)cc(F)c3)cc21` was 218 to 219 °C; that for `CS(=O)(=O)c1ccc(-c2oc3ccc(F)cc3c(=O)c2-c2cccnc2)cc1` was 177 to 178 °C.
The value for `CC(C)c1ccc2c(c1)c(SCC1CC1)c(CC(C)(C)C(N)=O)n2Cc1ccc(Cl)cc1` was 137 to 138 °C.
The value for `CS(=O)(=O)c1ccc(N2CCc3ccccc32)c([N+](=O)[O-])c1` was 152 to 154 °C.
`CCCc1n[nH]c(=O)c2c(C)ncn12` yielded a melting point of 168 to 170 °C.
`O=Cc1ccc2c(c1)ncn2-c1cccc(-c2ccccc2)c1` gave a melting point of 170 to 172 °C.
The value for `O=C(O)c1ccc2c(c1)OCC(=O)N2Cc1ccccc1` was 230 °C.
The value for `CCCCCOC(=O)Cc1nc(-c2ccc(F)cc2)oc1-c1ccsc1` was 78 to 80 °C; that for `OCC(O)COC(c1ccccc1)(c1ccccc1)c1ccccc1` (stereo not given) was 108 to 110 °C.
The value for `CCN(CCCC12CC3CC(CC(C3)C1)C2)C(=O)NCCCc1ccncc1` was 97.5 to 98.2 °C.
`COc1cccc(C=CC2=NN(C(C)=O)C(C)Cc3cc4c(cc32)OCO4)c1OC` (stereo not given) returned a melting point of 125 to 128 °C.
With `Cn1ccc(=O)c(O)c1C(O)c1ccccc1` (stereo not given), the melting point was 210 to 213 °C.
The value for `CN1OC(CNc2ccccc2)CC1(Cn1ccnc1)c1ccc(Cl)cc1` (stereo not given) was 159 to 160 °C; that for `COC1OC(CO)C(OCc2ccccc2)C(O)C1OCc1ccccc1` (stereo not given) was 104 to 105 °C; that for `Cc1cc(F)ccc1-c1nc(NCC(F)(F)F)nc2c1ccc(=O)n2-c1c(F)cccc1F` was 195 to 196 °C.
As for `O=C(NCc1csc(C(F)(F)F)n1)c1ccnc(N2CCN(Cc3ccc(F)cc3)C2=O)c1`, the melting point fell in the range of 66 to 68 °C.
The value for `Cc1c(C)c(-c2cccc(CO)c2)c(C)c(C)c1OCCCS(C)(=O)=O` was 132 to 134 °C; that for `CCCCOC(=O)C(NC(=O)OC(C)(C)C)c1c[nH]c2ccccc12` (stereo not given) was 127 to 128 °C.
The value for `Cc1ccc2sc3cc(C(=O)O)ccc3c(=O)c2c1` was over 250 °C; that for `COCC(NC(=O)OCc1ccccc1)C(=O)NCc1ccccc1` (stereo not given) was 112 to 114 °C; that for `O=S1(=O)c2cccc3cccc(c23)N1CCCCN1CC=C(c2ccccc2)CC1` was 101 °C.
`CC(C)C(CN=C(O)C(Cl)=C(Cl)C(=O)O)c1ccc(Cl)cc1` (stereo not given) yielded a melting point of 91 to 92 °C.
The value for `Cc1ccc(Oc2ccc3c4c(cccc24)C2=NC(=O)C(C#N)=C23)cc1` was 232 to 233 °C; that for `CSc1c(C)[nH]c2ccc([N+](=O)[O-])cc12` was 198 °C.
For the molecule `CC(=NO)c1ccc(N)c(S(N)(=O)=O)c1`, the melting point was in the range of 230 to 233 °C.
The value for `CCCNC(=O)N(C)C1CCNCC1` was 84 to 86 °C; that for `C[C@H]1OC(=O)[C@@H]2C=C3CCCC[C@H]3[C@H](O)[C@H]12` was 156 to 157 °C.
The value for `Cc1ccc(Oc2ccc(-n3cc(C(=O)O)nn3)cc2)c(O)c1` was 159 to 161 °C; that for `COc1ccc(C(=O)C=Cc2cccnc2)cc1` was 113 to 114 °C; that for `CC1C2C(C(=O)N1Cc1ccc3c(c1)OCO3)C(c1ccc(Br)cc1)N(C)C2(C)C` (stereo not given) was 142 to 144 °C.
In turn, `O=C(CSc1ccc(Cl)cc1C(=O)O)c1ccccc1` came in with a melting point of 154 to 156 °C.
The value for `O=C(O)C1=Cc2ccccc2SC1C(F)(F)F` (stereo not given) was 187 to 190 °C.
Take `CCCCN1CC(=O)NC1=O`: the melting point is 90 to 92 °C.
The value for `CC(C)(c1ccc(O)cc1)c1ccc(O)c(C(C)(C)c2ccc(O)cc2)c1` was 190 °C; that for `CCCc1ncc(/C=C2\C(=O)N(CC(=O)OC)c3cccc(C)c32)n1Cc1ccc(C(=O)OC)cc1` was 228 to 230 °C.
`COc1ccc2cc(C#N)ccc2c1Br` showed a melting point of 177 to 178 °C.
In turn, `O=C(CCCN1CCC2(CC(O)c3c(Cl)cccc32)C1)c1ccc(F)cc1` (stereo not given) yielded a melting point of 161 to 163 °C.
The value for `NC(=O)N(O)Cc1cc(-c2ccc(Cl)cc2)n(-c2ccc(S(N)(=O)=O)cc2)n1` was 216 to 218 °C.
The value for `COc1c(C)c(OC(=O)c2c(C)c(C)c(OCCCOc3ccc(C(N)=O)cc3)c(C)c2OC)c(C)c(C)c1C(N)=O` was 284 to 286 °C.
The value for `O=S(=O)(c1ccc(F)cc1)N1CCCC1c1ccccc1F` (racemic) was 108 °C; that for `CCN(C=O)C1CCC(CNc2nc3c(s2)CCOc2ccccc2-3)CC1` (stereo not given) was 210 to 213 °C; that for `CC(C)(C)OC(=O)NC(C)(C)c1ccc(Br)nc1` was 100 to 103 °C.
For the molecule `CCOC(=O)CSc1nc(Cl)cc(Nc2ccc(-c3ccccc3)cc2)n1`, the melting point was 110 to 112 °C.
For `COC(=O)Nc1ccc(OC)c(OC)c1`, the melting point lay within 83 to 87 °C.
